Results reported in patent US20240360194A1, “New Peptides as Potent and Selective GIP Receptor Agonists” (Sanofi, priority 2021, published 2024).
pEC50, pIC50: −log10 of the molar value. Numbered stars: 1 amine (or outer) side, 2 acyl side, 3 side chain; on linkers, the order of the positions; unused ones are H or OH. Square brackets hold non-standard residues; d marks the D form. Side chains are listed from the residue outwards. Peptide text beside a SMILES is read from it. * marks the point of attachment. C18 diacid = O=C(O)CCCCCCCCCCCCCCCCC(=O)*; γGlu = O=C(O)[C@H](CCC(=O)[*:2])N[*:1]; dIva = CC[C@@](C)(N)C(=O)O; AEEA = NCCOCCOCC(=O)O; Aib = CC(C)(N)C(=O)O

What was measured:
[1] = target: T1, human GIP receptor (hGIPR) (Homo sapiens, UniProt P48546); test: Binding assay, displacement of [125I]GIP from HEK-293 membranes over-expressing GIPR (SPA); conditions: [125I]GIP displacement
T1 sequence (P48546 22-466): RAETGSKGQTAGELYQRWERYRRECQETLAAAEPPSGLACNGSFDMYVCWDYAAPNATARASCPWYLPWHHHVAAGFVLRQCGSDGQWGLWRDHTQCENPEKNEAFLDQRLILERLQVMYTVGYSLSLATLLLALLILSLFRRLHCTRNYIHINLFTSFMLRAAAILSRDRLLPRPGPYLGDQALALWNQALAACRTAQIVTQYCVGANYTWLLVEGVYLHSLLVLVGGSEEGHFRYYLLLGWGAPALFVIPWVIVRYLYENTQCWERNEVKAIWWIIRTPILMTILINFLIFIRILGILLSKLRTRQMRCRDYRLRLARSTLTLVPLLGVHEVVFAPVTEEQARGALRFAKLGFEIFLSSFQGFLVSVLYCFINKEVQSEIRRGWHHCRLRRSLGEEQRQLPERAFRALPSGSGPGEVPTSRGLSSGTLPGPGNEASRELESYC
Procedure, shortened: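 Membranes from HEK-293 cells over-expressing human GIPR or GLP-1R, isolated by homogenising, sonicating and ultracentrifuging at 100000×g into HEPES/EDTA/NaCl buffer with protease inhibitors, were used for binding.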

[2] = ThT assay for the assessment of physical stability (fibrillation); format: physicochemical; conditions: ThT buffer system A: 100 mM phosphate buffer pH 7.4; 3 mg/ml, 37° C., shaking
Excerpt: Low physical stability of a peptide solution may lead to amyloid fibril formation, which is observed as well-ordered, thread-like macromolecular structures in the sample, which eventually may lead to gel formation. Thioflavin T (ThT) is widely used to visualize and quantify the presence of misfolded protein aggregates [Biancalana et al., Biochim. Biophys. Acta 2010, 1804(7), 1405]. […] Enzymol. 1999, 309, 274]. The time course for fibril formation often follows the characteristic shape of a sigmoidal curve and can be separated into three regions: a lag phase, a fast growth phase, and a plateau phase. The typical fibril formation process starts with the lag phase in which the amount of partially folded peptide turned into fibrils is not significant enough to be detected. The lag-time corresponds to the time the critical mass of the nucleus is built. Afterwards, a drastic elongation phase follows, and fibril concentration increases rapidly. Investigations were carried out to determine fibrillation tendencies under stress conditions by shaking at 37° C. within Fluoroskan Ascent FL or Fluoroskan Ascent. For the tests in Fluoroskan Ascent (FL), 200 μl sample were placed into a 96-well mictrotiter plate PS, flat bottom, Greiner Fluotrac No. 655076. Plates were sealed with Scotch Tape (Qiagen). Samples were stressed by continuous cycles of 10 sec shaking at 960 rpm and 50 sec rest period at 37° C. The kinetic was monitored by measuring fluorescence intensity every 20 min. Peptides were diluted in a buffer system to a final concentration of 3 mg/ml. 20 μl of a 10.1 mM ThT solution in H2O were added to 2 ml of peptide solution to receive a final concentration of 100 μM ThT. For each sample eight replicates were tested. • ThT buffer system A) 100 mM phosphate buffer pH 7.4 • ThT buffer system B) 100 mM phosphate buffer pH 7.4, 2.7 mg/ml m-cresol Lag time in hours (h) in Thioflavin T (ThT) assay of peptide samples was determined in ThT buffer system A as described in Methods.

human GIP receptor = target: T2, human GIP receptor (Homo sapiens, UniProt P48546); test: In vitro cellular cAMP assay for GIP receptor efficacy (human adipocytes); format: cell-based; conditions: for pEC50: read-out: hGIPR EC50; for Emax: read-out: hGIPR Emax
T2 construct: human adipocytes endogenously expressing the human GIP receptor; host or cells: human preadipocytes (Lonza) differentiated to adipocytes
T2 sequence (P48546 22-466): T1 sequence (P48546 22-466)
Procedure, shortened: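 Human preadipocytes expanded, then differentiated 6 days (insulin, dexamethasone, PPARγ agonist, 200 μM IBMX, L-thyroxine) before plating at 5000 cells/well. Test compound applied 30 min at room temperature; cAMP measured by HTRF after 1 h with lysis-buffer reagents, read as 665/620 nm fluorescence ratio.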

Compound | pIC50 [1] | Increase in FI [2] | Lag time before increase [2] [h] | pEC50 (human GIP receptor) | Emax (human GIP receptor) [%]
CC[C@H](C)[C@H](NC(=O)[C@H](CCCNC(=N)N)NC(=O)[C@H](CC(=O)O)NC(=O)[C@H](CCCCNC(=O)COCCOCCNC(=O)COCCOCCNC(=O)CC[C@H](NC(=O)CCCCCCCCCCCCCCCCC(=O)O)C(=O)O)NC(=O)C(C)(C)NC(=O)[C@@H](NC(=O)[C@H](CO)NC(=O)[C@H](CC(C)C)NC(=O)[C@H](CC(=O)O)NC(=O)[C@H](CO)NC(=O)[C@@H](NC(=O)[C@@](C)(CC)NC(=O)[C@@H](NC(=O)CNC(=O)[C@H](CCC(=O)O)NC(=O)C(C)(C)NC(=O)[C@@H](N)Cc1ccc(O)cc1)[C@@H](C)O)[C@@H](C)CC)[C@@H](C)CC)C(=O)N[C@@H](Cc1c[nH]cn1)C(=O)N[C@@H](CCC(N)=O)C(=O)NC(C)(C)C(=O)N[C@@H](CCC(=O)O)C(=O)N[C@@H](Cc1ccccc1)C(=O)N[C@H](C(=O)N[C@@H](CCC(=O)O)C(=O)N[C@@H](Cc1c[nH]c2ccccc12)C(=O)N[C@@H](CC(C)C)C(=O)N[C@@H](CC(C)C)C(=O)N[C@@H](C)C(=O)N[C@@H](CCC(N)=O)C(=O)N[C@@H](CCCNC(=N)N)C(=O)NCC(N)=O)[C@@H](C)CC [SEQ ID NO: 16, H2N-Y-Aib-E-G-T-Iva-I-S-D-L-S-I-Aib-K[{AEEA}2-gGlu-C18OH]-D-R-I-H-Q-Aib-E-F-I-E-W-L-L-A-Q-R-G-NH2] | 10.00 | no | >45 | 9.22 | 91
CC[C@H](C)[C@H](NC(=O)[C@H](CCCNC(=N)N)NC(=O)[C@H](CCC(=O)O)NC(=O)[C@H](CCCCNC(=O)COCCOCCNC(=O)COCCOCCNC(=O)CC[C@H](NC(=O)CCCCCCCCCCCCCCCCC(=O)O)C(=O)O)NC(=O)C(C)(C)NC(=O)[C@@H](NC(=O)[C@H](CO)NC(=O)[C@H](CC(C)C)NC(=O)[C@H](CC(=O)O)NC(=O)[C@H](CO)NC(=O)[C@@H](NC(=O)[C@H](Cc1ccccc1)NC(=O)[C@@H](NC(=O)CNC(=O)[C@H](CCC(=O)O)NC(=O)C(C)(C)NC(=O)[C@@H](N)Cc1ccc(O)cc1)[C@@H](C)O)[C@@H](C)CC)[C@@H](C)CC)C(=O)N[C@@H](Cc1c[nH]cn1)C(=O)N[C@@H](CCC(N)=O)C(=O)NC(C)(C)C(=O)N[C@@H](CCC(=O)O)C(=O)N[C@@H](Cc1ccccc1)C(=O)N[C@H](C(=O)N[C@@H](CCC(=O)O)C(=O)N[C@@H](Cc1c[nH]c2ccccc12)C(=O)N[C@@H](CC(C)C)C(=O)N[C@@H](CC(C)C)C(=O)N[C@@H](C)C(=O)N[C@@H](CCC(N)=O)C(=O)NCC(=O)N1CCC[C@H]1C(=O)N[C@@H](CO)C(=O)N[C@@H](CO)C(=O)NCC(=O)N[C@@H](C)C(=O)N1CCC[C@H]1C(=O)N1CCC[C@H]1C(=O)N1CCC[C@H]1C(=O)N[C@@H](CO)C(N)=O)[C@@H](C)CC [SEQ ID NO: 21, H2N-Y-Aib-E-G-T-F-I-S-D-L-S-I-Aib-K[{AEEA}2-gGlu-C18OH]-E-R-I-H-Q-Aib-E-F-I-E-W-L-L-A-Q-G-P-S-S-G-A-P-P-P-S-NH2] (H-Y[Aib]EGTFISDLSI[Aib]K([AEEA-AEEA-γGlu-C18 diacid])ERIHQ[Aib]EFIEWLLAQGPSSGAPPPS-NH2) | 9.10 | no | >45 | – | 120
CC[C@H](C)[C@H](NC(=O)[C@H](Cc1ccccc1)NC(=O)[C@H](CCC(=O)O)NC(=O)C(C)(C)NC(=O)[C@H](CCC(N)=O)NC(=O)[C@H](Cc1c[nH]cn1)NC(=O)C(C)(C)NC(=O)[C@H](CCCNC(=N)N)NC(=O)[C@H](CC(=O)O)NC(=O)[C@H](CCCCNC(=O)COCCOCCNC(=O)COCCOCCNC(=O)CC[C@H](NC(=O)CCCCCCCCCCCCCCCCC(=O)O)C(=O)O)NC(=O)C(C)(C)NC(=O)[C@@H](NC(=O)[C@H](CO)NC(=O)[C@H](CC(C)C)NC(=O)[C@H](CC(=O)O)NC(=O)[C@H](CO)NC(=O)[C@@H](NC(=O)[C@H](Cc1ccccc1)NC(=O)[C@@H](NC(=O)CNC(=O)[C@H](CCC(=O)O)NC(=O)C(C)(C)NC(=O)[C@@H](N)Cc1ccc(O)cc1)[C@@H](C)O)[C@@H](C)CC)[C@@H](C)CC)C(=O)N[C@@H](CCC(=O)O)C(=O)N[C@@H](Cc1c[nH]c2ccccc12)C(=O)N[C@@H](CC(C)C)C(=O)N[C@@H](CC(C)C)C(=O)N[C@@H](C)C(=O)N[C@@H](CCC(N)=O)C(=O)N[C@@H](CCCNC(=N)N)C(=O)N1CCC[C@H]1C(=O)N[C@@H](CO)C(=O)N[C@@H](CO)C(=O)NCC(=O)N[C@@H](C)C(=O)N1CCC[C@H]1C(=O)N1CCC[C@H]1C(=O)N1CCC[C@H]1C(=O)N[C@@H](CO)C(N)=O [SEQ ID NO: 22, H2N-Y-Aib-E-G-T-F-I-S-D-L-S-I-Aib-K[{AEEA}2-gGlu-C18OH]-D-R-Aib-H-Q-Aib-E-F-I-E-W-L-L-A-Q-R-P-S-S-G-A-P-P-P-S-NH2] (H-Y[Aib]EGTFISDLSI[Aib]K([AEEA-AEEA-γGlu-C18 diacid])DR[Aib]HQ[Aib]EFIEWLLAQRPSSGAPPPS-NH2) | 9.00 | no | >45 | 9.22 | 98
CC[C@H](C)[C@H](NC(=O)[C@H](CCCNC(=N)N)NC(=O)[C@H](CC(=O)O)NC(=O)[C@H](CCCCNC(=O)COCCOCCNC(=O)COCCOCCNC(=O)CC[C@H](NC(=O)CCCCCCCCCCCCCCCCC(=O)O)C(=O)O)NC(=O)C(C)(C)NC(=O)[C@@H](NC(=O)[C@H](CO)NC(=O)[C@H](CC(C)C)NC(=O)[C@H](CC(=O)O)NC(=O)[C@H](CO)NC(=O)[C@@H](NC(=O)[C@H](Cc1ccccc1)NC(=O)[C@@H](NC(=O)CNC(=O)[C@H](CCC(=O)O)NC(=O)C(C)(C)NC(=O)[C@@H](N)Cc1ccc(O)cc1)[C@@H](C)O)[C@@H](C)CC)[C@@H](C)CC)C(=O)N[C@@H](Cc1c[nH]cn1)C(=O)N[C@@H](CCC(N)=O)C(=O)NC(C)(C)C(=O)N[C@@H](CCC(=O)O)C(=O)N[C@@H](Cc1ccccc1)C(=O)N[C@H](C(=O)N[C@@H](CCC(=O)O)C(=O)N[C@@H](Cc1c[nH]c2ccccc12)C(=O)N[C@](C)(CC)C(=O)N[C@@H](CC(C)C)C(=O)N[C@@H](C)C(=O)N[C@@H](CCC(N)=O)C(=O)NCC(=O)N1CCC[C@H]1C(=O)N[C@@H](CO)C(=O)N[C@@H](CO)C(=O)NCC(=O)N[C@@H](C)C(=O)N1CCC[C@H]1C(=O)N1CCC[C@H]1C(=O)N1CCC[C@H]1C(=O)N[C@@H](CO)C(N)=O)[C@@H](C)CC [SEQ ID NO: 31, H2N-Y-Aib-E-G-T-F-I-S-D-L-S-I-Aib-K[{AEEA}2-gGlu-C18OH]-D-R-I-H-Q-Aib-E-F-I-E-W-Iva-L-A-Q-G-P-S-S-G-A-P-P-P-S-NH2] (H-Y[Aib]EGTFISDLSI[Aib]K([AEEA-AEEA-γGlu-C18 diacid])DRIHQ[Aib]EFIEW[dIva]LAQGPSSGAPPPS-NH2) | 9.52 | no | >45 | 9.15 | 121
